What was measured:
[1] = molecular target: T1, Ku70–Ku80 (Homo sapiens, UniProt P12956+P13010); assay: nanoDSF thermostability and aggregation; type: binding; details: Ku 5 µM, 5 µM 3392, up to 25 µM no additional change
T1 construct: made in house; host or cells: baculovirus-infected Sf9 cells
Protocol: The thermostability and aggregation propensity of Ku was assessed using a Prometheus Panta nanoDSF instrument (NanoTemper Technologies GmbH, München, Germany). High-sensitivity capillaries were filled with Ku (10 μL each, experiments in triplicate) at a concentration of 5 µM into the instrument. We titrated against ligand 3392 covering a concentration ranging from 0 to 30 µM with measurements collected at a 1 °C-per-minute scan rate from 25 to 95 °C. Thermal unfolding was assessed by the increase in intrinsic tryptophan fluorescence detected at 350 and 330 nm following excitation at 280 nm. Inflection points in the thermal denaturation curves were identified using the first derivatives of the ratio r = fluorescence (350 nm)/fluorescence (330 nm). We measured dynamic light scattering (DLS) and turbidity throughout the heating ramp using back reflection to characterize protein aggregation. We determined aggregation temperatures using turbidity variations and increases in particle sizes.

[2] = molecular target: T2, DNA-PK (Homo sapiens, UniProt P12956+P13010); assay: DNA-PK kinase assay (phosphate transfer to p53 peptide); type: biochemical
T2 construct: made in house; Ku 70/80 from baculovirus-infected Sf9 cells
T2 sequence (P12956 whole entry): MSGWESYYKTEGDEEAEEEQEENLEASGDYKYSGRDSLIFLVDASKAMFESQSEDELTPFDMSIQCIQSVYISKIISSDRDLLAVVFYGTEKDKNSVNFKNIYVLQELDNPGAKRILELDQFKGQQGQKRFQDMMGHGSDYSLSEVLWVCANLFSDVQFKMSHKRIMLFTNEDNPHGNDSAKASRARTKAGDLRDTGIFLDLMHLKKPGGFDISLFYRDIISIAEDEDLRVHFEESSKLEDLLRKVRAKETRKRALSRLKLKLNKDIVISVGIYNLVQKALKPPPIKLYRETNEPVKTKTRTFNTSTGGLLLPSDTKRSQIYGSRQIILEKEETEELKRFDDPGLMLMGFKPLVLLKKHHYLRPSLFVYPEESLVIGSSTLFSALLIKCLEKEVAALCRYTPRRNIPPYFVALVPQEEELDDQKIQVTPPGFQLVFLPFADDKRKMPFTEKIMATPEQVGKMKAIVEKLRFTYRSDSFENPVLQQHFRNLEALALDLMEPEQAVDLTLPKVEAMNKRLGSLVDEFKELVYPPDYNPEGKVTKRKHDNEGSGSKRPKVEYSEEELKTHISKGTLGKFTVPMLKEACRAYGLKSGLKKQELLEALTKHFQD
T2 sequence (P13010 whole entry): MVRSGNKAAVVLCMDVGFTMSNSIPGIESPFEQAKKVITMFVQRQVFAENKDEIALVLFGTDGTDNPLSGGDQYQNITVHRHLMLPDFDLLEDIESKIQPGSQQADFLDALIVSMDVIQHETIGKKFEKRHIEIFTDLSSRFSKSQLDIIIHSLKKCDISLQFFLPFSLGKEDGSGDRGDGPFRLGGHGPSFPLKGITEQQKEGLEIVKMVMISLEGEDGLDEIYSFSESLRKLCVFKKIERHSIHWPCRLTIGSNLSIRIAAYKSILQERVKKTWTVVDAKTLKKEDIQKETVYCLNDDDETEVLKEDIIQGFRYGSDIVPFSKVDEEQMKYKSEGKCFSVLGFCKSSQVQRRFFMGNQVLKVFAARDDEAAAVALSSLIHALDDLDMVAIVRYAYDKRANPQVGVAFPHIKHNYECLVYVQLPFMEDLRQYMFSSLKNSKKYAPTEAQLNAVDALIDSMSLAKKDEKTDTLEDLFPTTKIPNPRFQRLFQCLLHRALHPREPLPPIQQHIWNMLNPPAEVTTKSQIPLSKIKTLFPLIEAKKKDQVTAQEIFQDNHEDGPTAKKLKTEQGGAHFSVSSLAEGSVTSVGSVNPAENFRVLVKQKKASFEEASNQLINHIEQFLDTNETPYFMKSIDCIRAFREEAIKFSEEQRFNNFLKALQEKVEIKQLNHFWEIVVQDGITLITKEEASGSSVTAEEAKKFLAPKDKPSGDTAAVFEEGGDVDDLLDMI
Protocol: The inhibitory activity of Ku-DBis on Ku-DNA binding was evaluated in vitro using Electrophoretic mobility shift assays (EMSA) with a [^32P]-labeled 30-bp duplex DNA and purified Ku 70/80. Kinase assays were performed to measure the DNA-dependent transfer of [^32P] from γ-[^32P] ATP to a synthetic p53-based peptide substrate, both as previously described. Both EMSA and DNA-PK inhibitor titration assays were performed in triplicate. Data were fit to standard binding curves using GraphPad Prism to determine IC50 values.

[3] = system: A549 NSCLC adenocarcinoma xenograft; assay: A549 NSCLC xenograft (CDX), intratumoral Ku-DBi with or without IR; type: in vivo, mice; details: for Ki-67 expression in tumors: IHC and Western blot
Protocol: The in vivo studies were conducted as approved by the Institutional Animal Care and Use Committee at Indiana University School of Medicine. A549 cells (~2.5 × 10^6) in 50% Matrigel were injected into the hind flanks of 8–10-week-old NOD.Cg-Rag1tm1Mom Il2rgtm1Wjl/SzJ (NRG) mice (IVT, In vivo Therapeutics Core, Indiana University Melvin and Bren Simon Comprehensive Cancer Center, Indianapolis, IN, USA) as previously described. Tumor volumes were monitored by electronic caliper measurement. Mice were randomized into groups of 3 or 4 using a random group generator; 6 different scenarios were generated, and the scenario with the most similar tumor volume averages across groups was selected. Treatments were initiated when tumors were ~600 mm^3. Tumors were administered Ku-DBi (30 µL of 10 mM) or vehicle (30 µL of DMSO) via intratumoral injection 4 h before 5 Gy irradiation of the tumor with a single dose of X-rays (250 kVp; dose rate = 1.4 Gy/min; 2 cm × 2 cm field) under isoflurane anesthesia. […] Mice were sacrificed 2 h post-irradiation (or 2 h post-sham irradiation); tumors were excised and processed for immunohistochemistry (IHC) assays. Cell-free protein extracts were prepared to assess DNA-PKcs autophosphorylation and γ-H2AX levels.
Protein lysates, ranging from 20 to 30 μg, were separated by SDS-PAGE (4–20% Mini Protean TGX Gels, BioRad, Hercules, CA, USA) and transferred onto PVDF membranes (Bio-Rad) through wet transfer. Membranes blocked in 0.5% Tween and 3% BSA in 1× TBS for 1 h were probed with the following primary antibodies: Phospho-DNA PKcs (S2056) (Cat: ab124918, Abcam, Cambridge, UK), total DNA-PKcs (Cat: sc-5282, Santa Cruz Biotechnology, Dallas, TX, USA), and γ-H2AX pS139 (Cat: 613401, BioLegend, San Diego, CA, USA). […] All primary antibodies were prepared with 3% BSA and 0.02% NaN3 in TBS with 0.5% Tween. Goat anti-rabbit or anti-mouse IgG (H + L)–HRP conjugates (Cat: 170-6515 or 170-6516, Bio-Rad) were used as secondary antibodies to detect these proteins. Imaging, densitometric analysis, and quantification of protein expression were performed as previously described.
Excised tumors were fixed in 4% paraformaldehyde (PFA) solution in PBS for 24 h at 4 °C. After fixation, tumors were transferred to 70% ethanol and paraffin embedding. Sectioning was completed by the Indiana University Histology Core at the IU School of Medicine. Representative 3 μm-thick sections for each treatment were stained with H and E (HE; Harris hematoxylin, regressive method) for histologic examination or were processed for Ki-67 IHC immunodetection. Briefly, paraffin-embedded sections were deparaffinized in a xylene series (4 × 3 min) and rehydrated in a series of graded alcohol dilutions (100%, 95%, 70%, and ddH2O, 2 × 2 min each). […]

[4] = system: MDA-436; assay: CCK-8 cell viability, single agent; type: cell-based, Human; details: Homo sapiens
Protocol: Cell metabolism/viability was assessed using a mitochondrial metabolism assay (CCK-8) kit (Cell Counting Kit-8, Cat: CK04, Dojindo Laboratories, Rockville, MD, USA) as previously described. Briefly, cells were seeded at a density of 3 × 10^3 cells per well in 96-well plates and allowed to adhere and stretch for 18–24 h prior to treatment. Cells were pre-treated with Ku-DBi for 24 h before bleomycin treatments. Subsequently, cells were incubated for an additional 48 h at 37 °C after which CCK-8 assay was performed. The absorbance of the formed formazan product in each well was measured at 450 nm and compared to vehicle-treated controls to determine percent cell viability. The results represent the average and SEM of triplicate determinations.

T1 sequence (P12956 whole entry): as the sequence (P12956 whole entry) above
T1 sequence (P13010 whole entry): as the sequence (P13010 whole entry) above

Thermal stability of Ku [1]: induced a shift in thermal stability | DNA-PK inhibitory activity, fold more active than fluoro-modified counterparts (3618 and 3649) [2]: ~ 2.5 fold | IC50 ([2]; DNA-dependent phosphate transfer to synthetic p53 peptide, purified DNA-PK, mean and SD of triplicate): 770 ± 190 nM
Compound: COc1ccc(-c2ccc(/C=C3\C(=O)N(c4cccc(C(=O)O)c4)c4ccccc43)o2)cc1C(=O)Nc1cccc(OC(F)(F)F)c1 [GL-3392]
Ki-67 expression in tumors ([3]; 3392 intratumoral plus 5 Gy IR): statistically significant decrease in the Ki-67 expression | γ-H2AX in tumors ([3]; 3392 intratumoral plus 5 Gy IR, Western blot): further exacerbated in the combination-treated tumors | IR-induced DNA-PKcs autophosphorylation in tumors ([3]; intratumoral 30 µL of 10 mM, 4 h before 5 Gy, tumors taken 2 h post-irradiation, Western blot): effectively reversed the IR-induced DNA-PKcs autophosphorylation | Ki-67 expression in tumors ([3]; single-agent 3392, intratumoral): limited effects | viability at 25 µM ([4]; MDA-436, 25 µM): 43.9 ± 2.6% | IC50 ([4]; MDA-436, CCK-8, 72 h, mean ± SD): 22.2 ± 1.4 µM

Reference: publication PMC11475570, “Impact of Optimized Ku–DNA Binding Inhibitors on the Cellular and In Vivo DNA Damage Response” (Cancers, 2024)
